# Data taken from US20140363379A1, “NUTRITIONAL APPROACH TO THE USE OF ERGOTHIONEINE AND VITAMIN D2 FOR HAIR, NAIL AND SKIN GROWTH” (ENTIA BIOSCIENCES, INC., priority 2011, published 2014).
# Assays:
# insulin resistance = conditions: cited from earlier work
# [1] = humans, after mushroom consumption (0 g, 8 g, 16 g doses); cited from earlier work
# glutathione = experiment: Glutathione levels in plasma, cortex and midbrain of Parkinson's model mice, by glutathione assay; assay type: in vivo, mouse; conditions: compared with knockout mice
# Method: Matched cohorts of SNCA transgenic mouse model of PD were used to measure the therapeutic efficacy of ErgoD2™ to control movement disorder, improve grip strength, and lower alpha-synuclein in the cortex and/or midbrain of the PD animals. Additionally, alpha-synuclein was measured in the plasma, and glutathione was measured in the plasma, cortex and midbrain. IL-6 measurements and an immunohistochemistry study will also be performed on intestinal tissues to see if there are pathologic variances in intestinal function between cohorts, which could be associated with disease onset and progression.
# Concentrations of glutathione present in midbrain homogenates (nM), as measured by glutathione assay.
# Concentrations of glutathione present in cortex homogenates (nM), as measured by glutathione assay. Error bars represent±standard error. Glutathione is a major protective antioxidant in animal cells. It is present most abundantly in its reduced form (GSH) in healthy cells. The levels of GSH and glutathione disulfide (GSSG), the oxidized form, are used as indicators of oxidative stress and overall cell health. One of the well-established markers of PD is a decrease in glutathione levels in the substantia nigra (SN). This decrease is specific to the SN and is not observed in other sections of the PD brain.
molecule,measurement,setting,value
vitamin D,improvement of insulin resistance,insulin resistance; bringing 25(OH)D levels above 80 nmol/L,12%
same,improvement in insulin sensitivity,insulin resistance; increasing vitamin D levels from 25 to 75 nmol/L,60%
C[N+](C)(C)[C@@H](Cc1c[nH]c(=S)[nH]1)C(=O)[O-] [L-Ergothioneine],time of peak of ET in red blood cells (RBC),[1],2 h
"CC(=O)N[C@@H](CS)C(=O)O [NAC, n-acetyl cysteine]","cortex glutathione concentration, treated transgenic versus knockout mice",glutathione,no significant differences
